Reference: publication PMC10600239, “Selective MCL-1 inhibitor ABBV-467 is efficacious in tumor models but is associated with cardiac troponin increases in patients” (Communications Medicine, 2023)

How the values were obtained:
Assay in all cases: Off-target profiling (Supplementary Data 1)
[1] = target: off-target receptors, ion channels, and transporters (Homo sapiens, UniProt P52333); settings: TR-FRET Kinome; Invitrogen A-1180691.2 .05(Subs Conc)
[2] = target: off-target receptors, ion channels, and transporters (Homo sapiens, UniProt P25101)
[3] = target: off-target receptors, ion channels, and transporters (Homo sapiens, UniProt P41240); settings: TR-FRET Kinome; SignalChem A-1196581.2 .002(Subs Conc)
[4] = target: off-target receptors, ion channels, and transporters (Homo sapiens, UniProt Q16539); settings: TR-FRET Kinome; Invitrogen IVGN Tracer 199 .05(Subs Conc)
[5] = target: off-target receptors, ion channels, and transporters (Homo sapiens, UniProt P45983); settings: TR-FRET Kinome; Invitrogen A-1196442.2 .1(Subs Conc)
[6] = target: off-target receptors, ion channels, and transporters (Homo sapiens, UniProt O43293); settings: TR-FRET Kinome; Invitrogen A-1180691.2 .1(Subs Conc)
[7] = target: off-target receptors, ion channels, and transporters (Homo sapiens, UniProt P07949); settings: TR-FRET Kinome; Invitrogen A-1180691.2 .1(Subs Conc)
[8] = target: off-target receptors, ion channels, and transporters (Homo sapiens, UniProt P06239); settings: TR-FRET Kinome; Invitrogen A-1167389.7 .1(Subs Conc)
[9] = target: off-target receptors, ion channels, and transporters (Homo sapiens, UniProt P51812); settings: TR-FRET Kinome; Invitrogen A-1169612.6 .0015(Subs Conc)
[10] = target: off-target receptors, ion channels, and transporters (Homo sapiens, UniProt Q96RR4); settings: TR-FRET Kinome; Invitrogen A-1167389.7 .005(Subs Conc)
[11] = target: off-target receptors, ion channels, and transporters (Homo sapiens, UniProt Q04771); settings: TR-FRET Kinome; Invitrogen A-1180691.2 .05(Subs Conc)
[12] = target: off-target receptors, ion channels, and transporters (Homo sapiens, UniProt P21554)
[13] = target: off-target receptors, ion channels, and transporters (Homo sapiens, UniProt Q05397); settings: TR-FRET Kinome; Invitrogen A-1167389.7 .05(Subs Conc)
[14] = target: off-target receptors, ion channels, and transporters (Homo sapiens, UniProt P24530)
[15] = target: off-target receptors, ion channels, and transporters (Homo sapiens, UniProt P41595)
[16] = target: off-target receptors, ion channels, and transporters (Homo sapiens, UniProt Q9H4B4); settings: TR-FRET Kinome; Invitrogen A-1224615.7 .2(Subs Conc)
[17] = target: off-target receptors, ion channels, and transporters (Homo sapiens, UniProt Q08345); settings: TR-FRET Kinome; Invitrogen A-1196581.2 .003(Subs Conc)
[18] = target: off-target receptors, ion channels, and transporters (Homo sapiens, UniProt P42680); settings: TR-FRET Kinome; SignalChem A-1214384.2 .02(Subs Conc)
[19] = target: off-target receptors, ion channels, and transporters (Homo sapiens, UniProt O43318); settings: TR-FRET Kinome, SignalChem A-1167389.7 .05(Subs Conc)
[20] = target: off-target receptors, ion channels, and transporters (Homo sapiens, UniProt P07948); settings: TR-FRET Kinome, SignalChem A-1196581.2 .002(Subs Conc)
[21] = target: off-target receptors, ion channels, and transporters (Homo sapiens, UniProt P51955); settings: TR-FRET Kinome; Invitrogen A-1196581.2 .025(Subs Conc)
[22] = target: off-target receptors, ion channels, and transporters (Homo sapiens, UniProt Q96GD4); settings: TR-FRET Kinome; Invitrogen A-1202211.2 .05(Subs Conc)
[23] = target: off-target receptors, ion channels, and transporters (Homo sapiens, UniProt P35372)
[24] = target: off-target receptors, ion channels, and transporters (Homo sapiens, UniProt Q92918); settings: TR-FRET Kinome; SignalChem A-1169612.6 .025(Subs Conc)

off-target receptors, ion channels, and transporters (Homo sapiens, UniProt P41595), sequence (P41595 whole entry): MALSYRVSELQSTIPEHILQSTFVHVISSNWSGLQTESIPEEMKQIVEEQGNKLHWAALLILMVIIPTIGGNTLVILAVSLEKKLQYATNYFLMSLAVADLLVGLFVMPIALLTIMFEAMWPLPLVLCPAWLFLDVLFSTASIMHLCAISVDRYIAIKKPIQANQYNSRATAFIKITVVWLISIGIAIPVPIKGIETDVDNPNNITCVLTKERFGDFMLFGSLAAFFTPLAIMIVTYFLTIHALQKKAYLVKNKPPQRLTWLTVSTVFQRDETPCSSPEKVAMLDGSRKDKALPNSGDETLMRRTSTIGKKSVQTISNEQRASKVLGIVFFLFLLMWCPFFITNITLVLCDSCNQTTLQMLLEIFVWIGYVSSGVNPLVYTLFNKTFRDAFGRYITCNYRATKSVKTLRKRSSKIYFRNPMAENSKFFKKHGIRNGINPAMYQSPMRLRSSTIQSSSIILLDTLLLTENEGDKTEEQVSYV
off-target receptors, ion channels, and transporters (Homo sapiens, UniProt P07948), sequence (P07948 2-512): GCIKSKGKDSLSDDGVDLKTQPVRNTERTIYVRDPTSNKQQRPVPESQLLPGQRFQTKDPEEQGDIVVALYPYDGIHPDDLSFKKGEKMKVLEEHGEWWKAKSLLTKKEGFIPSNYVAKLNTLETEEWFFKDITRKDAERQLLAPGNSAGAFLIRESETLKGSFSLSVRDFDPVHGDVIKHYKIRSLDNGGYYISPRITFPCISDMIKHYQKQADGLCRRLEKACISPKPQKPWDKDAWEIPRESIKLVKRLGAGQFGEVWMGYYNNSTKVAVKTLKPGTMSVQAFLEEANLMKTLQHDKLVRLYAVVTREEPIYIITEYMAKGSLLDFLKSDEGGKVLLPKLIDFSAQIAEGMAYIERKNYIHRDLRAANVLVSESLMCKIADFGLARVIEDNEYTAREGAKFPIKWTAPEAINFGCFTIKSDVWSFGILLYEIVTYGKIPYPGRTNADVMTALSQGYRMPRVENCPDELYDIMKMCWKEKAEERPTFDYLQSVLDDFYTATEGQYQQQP
off-target receptors, ion channels, and transporters (Homo sapiens, UniProt P24530), sequence (P24530 27-442): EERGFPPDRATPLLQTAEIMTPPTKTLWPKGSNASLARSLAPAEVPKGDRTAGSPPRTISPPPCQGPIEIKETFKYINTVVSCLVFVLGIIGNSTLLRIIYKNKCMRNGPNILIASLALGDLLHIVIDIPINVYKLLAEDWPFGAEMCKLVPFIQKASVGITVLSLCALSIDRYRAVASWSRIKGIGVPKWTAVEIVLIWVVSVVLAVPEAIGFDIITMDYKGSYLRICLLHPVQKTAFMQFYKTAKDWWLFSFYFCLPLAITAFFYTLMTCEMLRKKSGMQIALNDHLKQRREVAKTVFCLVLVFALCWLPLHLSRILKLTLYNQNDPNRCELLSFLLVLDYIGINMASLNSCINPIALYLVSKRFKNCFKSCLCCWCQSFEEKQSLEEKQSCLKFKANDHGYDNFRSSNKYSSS
off-target receptors, ion channels, and transporters (Homo sapiens, UniProt P21554), sequence (P21554 whole entry): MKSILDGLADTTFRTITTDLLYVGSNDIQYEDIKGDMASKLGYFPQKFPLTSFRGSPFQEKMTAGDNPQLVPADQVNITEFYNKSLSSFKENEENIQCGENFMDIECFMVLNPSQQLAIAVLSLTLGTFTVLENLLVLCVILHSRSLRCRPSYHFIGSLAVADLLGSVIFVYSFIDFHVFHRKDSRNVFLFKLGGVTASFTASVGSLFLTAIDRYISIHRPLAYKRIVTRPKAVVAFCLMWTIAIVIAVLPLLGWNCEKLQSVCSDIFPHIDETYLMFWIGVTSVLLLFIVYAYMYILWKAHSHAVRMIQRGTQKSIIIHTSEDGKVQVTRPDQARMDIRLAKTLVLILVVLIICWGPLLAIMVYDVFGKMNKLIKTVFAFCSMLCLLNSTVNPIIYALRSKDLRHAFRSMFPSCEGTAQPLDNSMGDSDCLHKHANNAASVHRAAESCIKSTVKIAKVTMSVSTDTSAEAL
off-target receptors, ion channels, and transporters (Homo sapiens, UniProt O43318), sequence (O43318 1-303): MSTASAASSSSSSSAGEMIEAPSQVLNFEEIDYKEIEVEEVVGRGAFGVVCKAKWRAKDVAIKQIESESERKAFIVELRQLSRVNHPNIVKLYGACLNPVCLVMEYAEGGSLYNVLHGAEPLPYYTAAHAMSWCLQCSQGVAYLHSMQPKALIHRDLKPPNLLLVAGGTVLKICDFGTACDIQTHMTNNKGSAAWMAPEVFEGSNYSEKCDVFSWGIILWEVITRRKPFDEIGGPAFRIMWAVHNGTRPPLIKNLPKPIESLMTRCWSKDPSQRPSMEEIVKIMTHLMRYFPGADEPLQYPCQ
off-target receptors, ion channels, and transporters (Homo sapiens, UniProt O43318), sequence (Q15750 437-504 partner): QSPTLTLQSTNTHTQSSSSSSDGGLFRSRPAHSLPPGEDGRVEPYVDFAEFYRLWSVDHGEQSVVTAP
off-target receptors, ion channels, and transporters (Homo sapiens, UniProt P25101), sequence (P25101 21-427): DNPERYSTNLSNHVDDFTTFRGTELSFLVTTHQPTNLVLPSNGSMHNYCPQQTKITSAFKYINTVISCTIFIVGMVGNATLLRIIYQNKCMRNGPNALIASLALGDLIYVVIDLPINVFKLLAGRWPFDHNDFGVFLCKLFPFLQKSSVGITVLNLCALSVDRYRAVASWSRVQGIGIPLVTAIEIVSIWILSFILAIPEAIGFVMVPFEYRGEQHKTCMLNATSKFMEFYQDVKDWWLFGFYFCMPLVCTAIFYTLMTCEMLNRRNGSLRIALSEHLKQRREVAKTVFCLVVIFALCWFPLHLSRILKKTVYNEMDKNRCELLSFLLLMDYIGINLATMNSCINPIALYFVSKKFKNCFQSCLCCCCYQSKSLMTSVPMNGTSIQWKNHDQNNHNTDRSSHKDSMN
off-target receptors, ion channels, and transporters (Homo sapiens, UniProt P35372), sequence (P35372 whole entry): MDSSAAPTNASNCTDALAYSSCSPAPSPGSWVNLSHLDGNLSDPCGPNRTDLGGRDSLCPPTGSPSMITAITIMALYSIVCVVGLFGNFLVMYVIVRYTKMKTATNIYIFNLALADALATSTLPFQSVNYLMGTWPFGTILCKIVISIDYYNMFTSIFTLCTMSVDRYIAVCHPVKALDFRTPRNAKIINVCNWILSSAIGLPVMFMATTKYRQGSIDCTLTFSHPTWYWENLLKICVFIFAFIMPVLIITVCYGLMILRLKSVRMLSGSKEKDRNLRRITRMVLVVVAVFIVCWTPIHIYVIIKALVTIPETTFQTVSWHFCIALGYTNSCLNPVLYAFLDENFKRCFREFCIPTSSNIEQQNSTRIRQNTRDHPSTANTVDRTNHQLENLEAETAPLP
off-target receptors, ion channels, and transporters (Homo sapiens, UniProt Q96RR4), sequence (Q96RR4 whole entry): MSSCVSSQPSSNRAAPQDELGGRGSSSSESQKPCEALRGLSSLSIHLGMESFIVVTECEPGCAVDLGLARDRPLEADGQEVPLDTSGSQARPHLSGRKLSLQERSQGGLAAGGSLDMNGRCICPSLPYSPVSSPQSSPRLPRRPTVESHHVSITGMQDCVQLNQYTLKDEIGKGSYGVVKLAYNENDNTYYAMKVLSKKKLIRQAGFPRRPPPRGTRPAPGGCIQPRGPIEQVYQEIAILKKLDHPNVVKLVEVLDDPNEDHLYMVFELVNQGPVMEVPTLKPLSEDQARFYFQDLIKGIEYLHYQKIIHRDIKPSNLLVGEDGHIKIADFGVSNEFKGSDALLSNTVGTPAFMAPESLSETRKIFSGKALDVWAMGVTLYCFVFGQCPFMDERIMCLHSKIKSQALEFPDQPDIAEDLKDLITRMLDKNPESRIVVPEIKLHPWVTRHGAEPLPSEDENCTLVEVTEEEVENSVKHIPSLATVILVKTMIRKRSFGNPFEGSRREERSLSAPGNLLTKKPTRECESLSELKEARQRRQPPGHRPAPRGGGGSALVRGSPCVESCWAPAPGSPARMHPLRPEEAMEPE
off-target receptors, ion channels, and transporters (Homo sapiens, UniProt P06239), sequence (P06239 whole entry): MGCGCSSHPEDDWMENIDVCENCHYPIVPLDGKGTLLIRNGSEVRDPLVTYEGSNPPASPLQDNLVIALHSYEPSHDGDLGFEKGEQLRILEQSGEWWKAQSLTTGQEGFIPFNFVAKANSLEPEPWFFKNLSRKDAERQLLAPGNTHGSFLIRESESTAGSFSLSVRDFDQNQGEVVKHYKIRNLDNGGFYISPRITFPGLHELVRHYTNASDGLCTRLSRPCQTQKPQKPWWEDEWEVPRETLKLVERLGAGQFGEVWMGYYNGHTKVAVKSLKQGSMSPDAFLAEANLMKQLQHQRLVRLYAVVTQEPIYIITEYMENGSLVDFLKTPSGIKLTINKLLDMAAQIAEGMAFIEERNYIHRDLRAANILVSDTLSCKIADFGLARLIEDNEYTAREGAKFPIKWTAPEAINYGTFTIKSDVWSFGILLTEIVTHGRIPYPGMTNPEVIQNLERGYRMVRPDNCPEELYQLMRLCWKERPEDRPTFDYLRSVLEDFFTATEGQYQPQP
off-target receptors, ion channels, and transporters (Homo sapiens, UniProt O43293), sequence (O43293 whole entry): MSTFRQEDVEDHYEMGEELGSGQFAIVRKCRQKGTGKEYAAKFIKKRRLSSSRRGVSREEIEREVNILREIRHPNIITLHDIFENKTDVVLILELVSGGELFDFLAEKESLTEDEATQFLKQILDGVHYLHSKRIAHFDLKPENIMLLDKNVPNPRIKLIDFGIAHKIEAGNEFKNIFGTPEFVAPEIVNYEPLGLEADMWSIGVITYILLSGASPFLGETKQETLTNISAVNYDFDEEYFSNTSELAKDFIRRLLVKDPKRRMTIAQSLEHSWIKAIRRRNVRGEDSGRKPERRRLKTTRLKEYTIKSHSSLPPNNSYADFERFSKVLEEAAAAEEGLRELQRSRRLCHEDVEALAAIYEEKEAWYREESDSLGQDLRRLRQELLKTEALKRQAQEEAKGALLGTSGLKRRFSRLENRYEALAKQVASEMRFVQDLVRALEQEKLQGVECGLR

With `Cc1c(Cl)c2c(Cl)c(C)c1-c1c(-c3ccc(F)cc3)sc3ncnc(c13)O[C@@H](C(=O)O)Cc1cc(ccc1OCc1ccnc(-c3ccc(OC[C@H]4COCCO4)cc3)n1)OC[C@@H](CN1CCN(C)CC1)O2` [ABBV-467] the JAK3 - IC50 [1] was greater than 10 µM, the ETA CHO Human - EC50 ([2]; Bioprofiling 6pt Ag) was greater than 10 µM and the ETA CHO Human - IC50 ([2]; Bioprofiling 6pt Antag, Endothelin-1 (ET-1)) was greater than 10 µM. The CSK - IC50 [3] was greater than 10 µM, the p38 alpha - IC50 [4] was greater than 10 µM and the JNK1 - IC50 [5] was greater than 10 µM. It also gave a Zipk - IC50 [6] greater than 10 µM, an RET - IC50 [7] greater than 10 µM and a Lck - IC50 [8] greater than 10 µM. For the same compound, the Rsk2 - IC50 [9] was greater than 10 µM, the CAMKK2 - IC50 [10] was greater than 10 µM and the ACVR1 - IC50 [11] was greater than 10 µM. For the same compound, the CB1 CHO Human - EC50 ([12]; Bioprofiling 6pt Ag) was greater than 10 µM, the CB1 CHO Human - IC50 ([12]; Bioprofiling 6pt Antag, WIN 55,212-2) was greater than 10 µM and the FAK - IC50 [13] was greater than 10 µM. It also gave an ETB CHO Human - EC50 ([14]; Bioprofiling 6pt Ag) greater than 10 µM, an ETB CHO Human - IC50 ([14]; Bioprofiling 6pt Antag, BQ-3020) greater than 10 µM and a 5-HT2B CHO Human - EC50 ([15]; Bioprofiling 6pt Ag) greater than 10 µM. The 5-HT2B CHO Human - IC50 ([15]; Bioprofiling 6pt Antag, Serotonin (5-HT)) was greater than 10 µM, the 5-HT2B Human (Functional - Agonist Effect) - EC50 ([15]; CEREP) was greater than 100 µM and the “5-HT2B Human (Functional - Antagonist Effect) - IC50” value ([15]; CEREP) was greater than 100.00 µM. The “5-HT2B Human (Functional - Antagonist Effect) - Kb” value ([15]; CEREP) was greater than 15.30 µM, the Plk3 - IC50 [16] was greater than 10 µM and the DDR1 - IC50 [17] was greater than 10 µM. The TEC - IC50 [18] was greater than 10 µM, the IC50 ([19]; read-out: TAK1-TAB1 - IC50) was greater than 10 µM and the Ki ([19]; read-out: TAK1-TAB1 - Ki) was greater than 3.91 µM. It also gave an IC50 ([20]; read-out: LYN-B - IC50) greater than 10 µM, a Ki ([20]; read-out: LYN-B - Ki) greater than 8.15 µM and a Nek2 - IC50 [21] greater than 10 µM. It also gave an Aurora1 - IC50 [22] greater than 10 µM, an Opioid mu CHO Human - EC50 ([23]; Bioprofiling 6pt Ag) greater than 10 µM and an Opioid mu CHO Human - IC50 ([23]; Bioprofiling 6pt Antag, DAMGO) greater than 10 µM. It also gave an MAP4K1 - IC50 [24] greater than 10 µM.
